The values below come from patent EP0244363A1, “Composition and method to inhibit the growth of organisms by the use of bis-biguanido hexanes and essential oil mixture combinations” (WARNER-LAMBERT COMPANY, priority 1986, dated 1987).

In brackets after ≈: the same amount, converted by molar mass. Read-outs that look alike come from different tables or passages of the source.

Common to all, as to assay: Minimal growth inhibitory concentration (MIC), serial dilution in broth, agent alone
Common to all, as to assay type: cell-based

Assay [1] concerns Streptococcus mutans ATCC 25175. To be noted: for MIC: Streptococcus mutans, ATCC25175, 48 h, read-out: MIC (micro g/ml); for MIC in w/w%: chlorhexidine as free base concentration. On the procedure: (§1) MINIMAL GROWTH INHIBITORY CONCENTRATION
(§2) The minimal inhibitory concentration (MIC) of the test compound is the minimum concentration of compound required to inhibit growth of the test organism. The MIC is determined by serially diluting the test solution through tubes of sterile broth. The tubes are inoculated and incubated at 37°C for 48 hours. At the end of the incubation time, growth is checked macroscopically. The lowest concentration of test compound to inhibit growth is the MIC.

For assay [2], the system named is Actinomyces viscosus T14V. As to conditions: Experiment 6, A. viscosus, chlorhexidine as free base concentration. The protocol: as §1, §2
Assay [3] relates to Candida albicans ATCC 18804. To be noted: Experiment 7, C. Albicans, chlorhexidine as free base concentration. On the procedure: as §1, §2
Assay [4] deals with Streptococcus sanguis ATCC 19558. To be noted: Experiment 5, S. sanguis, chlorhexidine as free base concentration. On the procedure: as §1, §2
Setting [5] is: Experiments A-D, agent alone, 37°C, 48 hours.

For the compound `CC12CCC(CC1)C(C)(C)O2` [Eucalyptol], the MIC in assay [1] (setting [5]) turned out to be 58 µg/mL (≈ 376 µM).
As for `CC1CCC(C(C)C)C(O)C1` (stereo not drawn) [Menthol], the MIC in assay [1] was 30 µg/mL (≈ 192 µM).
On the same count and under the same terms, in the case of `COC(=O)c1ccccc1O` [Methyl Salicylate] it was 35 µg/mL (≈ 230 µM).
Regarding `[H]/N=C(\N/C(=N/[H])NCCCCCCNC(=N)NC(=N)Nc1ccc(Cl)cc1)Nc1ccc(Cl)cc1` [Chlorhexidine, 1,6-di(p-chlorophenylbiguanido)hexane], the figures for the “MIC (w/w%)” value in assay [2], in assay [3] and in assay [4] were 4.4x10^-5 w/w%, 3.5x10^-4 w/w% and 3.4x10^-4 w/w%, respectively. Further, the MIC in w/w% is listed as 2.2x10^-5 w/w% in assay [1] (Experiment 1, agent alone, 37°C, 48 hours); 2.2x10^-5 w/w% in assay [1] (Experiment 2, agent alone, 37°C, 48 hours); 2.8x10^-5 w/w% in assay [1] (Experiment 3, agent alone, 37°C, 48 hours); 2.25x10^-5 w/w% in assay [1] (Experiment 4, agent alone, 37°C, 48 hours). In addition, the MIC in assay [1] (setting [5]) was 0.25 µg/mL (≈ 0.495 µM).
As to `Cc1ccc(C(C)C)c(O)c1` [Thymol], in assay [1] (setting [5]), the MIC was 80 µg/mL (≈ 533 µM).
